{
  "source": "paper PMC8088467",
  "about": "(Cell Proliferation, 2021)",
  "tested_on": "Candida albicans SC5314",
  "experiment": "Morphology assay (light microscope and SEM)",
  "format": "cell-based",
  "settings": "1 x 10^6 CFU/mL, RP medium, 8 hours 37°C; 200 nM TDNs, 20 µM His‐5 or 200 nM TDN/His‐5 (1:100); bright field images",
  "experimental": "Candida albicans SC5314 (wild type) obtained from our laboratory were commercially from the American Type Culture Collection. ^34 Candida albicans strains were propagated on liquid or solid YPD medium at 30°C. The yeast cells used in all experiments were in the exponential growth phase (OD600 = 0.6). For inducing hyphae, C. albicans cells were grown in RPMI 1640 medium containing 2.5% foetal calf serum, 2 mM L‐glutamine, 20 mM HEPES and 16 mM sodium hydrogen carbonate (pH 7.0) (RP medium) at 37°C.\nAfter fixation, the samples were dehydrated with a gradient series of ethanol. Specimens were observed under a Leica DM1000 microscope (Leica Microsystems) and a scanning electron microscope (Inspect F, FEI, America). ^40 , ^44",
  "data": [
    {"substance": "Histatin 5", "values": [
      {"measurement": "Morphology of C. albicans (hyphae formation)", "value": "more yeast cells and fewer hyphae"}
    ]}
  ]
}
